The data set in a line: PK evaluation of crystal forms in rats. The format is in vivo. On the procedure:
The experimental crystal forms I and II of the methanesulfonate of the compound of formula (I) were each prepared into a suspension solution with 0.5% HPMC. The compound solutions were intragastrically administered to SD rats at a dose of 60 mg/kg. Blood samples were collected at time points of 15 min, 30 min, 1 h, 2 h, 4 h, 6 h, 8 h, 24 h, 48 h, 72 h, and 96 h after administration.
The animals were fixed, with tails warmed in a water bath 10 min before each sampling time point. About 100 µL of blood was collected via the tail vein, and the blood samples were collected in anticoagulation tubes containing EDTA-K2. The blood samples were then centrifuged at 8,000 rpm for 6 min at 4 °C to give plasma samples. The plasma samples were prepared within 30 min after blood collection. The plasma samples were stored in a refrigerator at -80 °C before the test.
The sample to be tested was taken out from the -80 °C refrigerator, naturally thawed at room temperature, and vortexed for 5 min. 20 µL of plasma sample was precisely pipetted to a 1.5 mL centrifuge tube, and 200 µL of internal standard working solution (a solution of tolbutamide in methanol, 100 ng/mL) was added. The resulting mixture was thoroughly mixed, vortexed for 5 min, and centrifuged at 12,000 rpm for 5 min. 50 µL of supernatant was precisely pipetted to a 96-well plate pre-loaded with 150 µL of water per well, and the resulting mixture was vortexed for 5 min and then used for LC-MS/MS analysis.
The concentrations of the test samples were calculated by Analyst 1.6.3 from AB Sciex. Parameters such as mean, standard deviation, and coefficient of variation (excluding those output directly by Analyst 1.6.3) were calculated by Microsoft Excel. PK parameters were calculated by Pharsight Phoenix 6.1 software NCA (Tmax was in median).

Broadly, the AUC(0-t) is exposure summed from dosing to a finite time, without extrapolation to infinity. The low end stands for less exposure, the high end for more exposure. Broadly, the Tmax is the time from dosing to the highest level. The term Cmax denotes the highest concentration seen after dosing.

For `COc1cc2nccc(Oc3ccc(NC(=O)c4nn(C(C)C)cc(-c5ccc(F)cc5)c4=O)nc3)c2cc1OC` [Crystal form I, N-(5-((6,7-dimethoxyquinolin-4-yl)oxy)pyridin-2-yl)-5-(4-fluorophenyl)-1-isopropyl-4-oxo-1,4-dihydropyridazine-3-carboxamide], the λ_z (SD rats, PO 60 mg/kg, n = 3, suspension in 0.5% HPMC) worked out at 0.018 h⁻¹. Under “SD, rat, plasma, po, 60 mg/kg, 0-96 h, n = 3”, the AUC(0-t) was 4020 µg·h/mL. Besides, under “SD, rat, plasma, po, 60 mg/kg, median, n = 3, read-out: Tmax”, the Tmax is 8 h. For the setting “SD, rat, plasma, po, 60 mg/kg, n = 3, read-out: Cmax”, the peak concentration (Cmax) stood at 69 µg/mL. Besides, the tz1/2 (terminal half-life, SD rats, PO 60 mg/kg, n = 3) stood at 38.6 h.

For the origin of these results see patent EP4582418A1, “CRYSTALLINE FORM OF QUINOLINE DERIVATIVE INHIBITOR, PREPARATION METHOD THEREFOR AND USE THEREOF” (TransThera Sciences (Nanjing), Inc., priority 2022, dated 2024).
